Test results published in patent EP0170926B1, “Eburnanecarboxylic acid derivatives having an amino group in position 9 or 11, the amino group eventually being substituted, process for their preparation, and medicaments containing these compounds” (priority 1984, dated 1986).
In brackets after ≈: the same amount, converted by molar mass. Counter-ions that a name gives are not always drawn. Like-named read-outs stand apart in the source and are kept apart here.

What was measured:
[1] = Antihypoxic effect, investigations without described method; conditions: in vivo
[2] = Vasodilating effect, tests without described method; conditions: in vivo
[3] = system: isolierten Meerschweinchenileum; test: Spasmolytic activity: inhibition of barium chloride-induced contraction of isolated guinea pig ileum; design: species or system Meerschweinchen; conditions: Cavia porcellus
Text: Die spasmolytische Aktivität der Verbindungen wurde am isolierten Meerschweinchendarm auf klassische Weise bestimmt (Magnus, R., Pflügers Arch., 102; 123/1904/). Als Referenzsubstanz wurden das bekannte Spasmolytikum Papaverin, ferner (+)-Apovincaminsäureäthylester verwendet. Die Ergebnisse sind in der Tabelle II zusammengefaßt.

[4] = system: nicht narkotisierter Mäuse; test: Antihypoxic effect: normobaric hypoxia in non-anaesthetised mice; assay type: in vivo; conditions: for Überlebensdauer (min): 50 mg/kg intraperitoneal 30 min before test, 96 % nitrogen, 4 % oxygen, mean ± spread; for Überlebensdauer (%) Verlängerung: prolongation versus control
Text: Die antihypoxische Wirkung wurde an nicht narkotisierten Mäusen in normobarer Hypoxie bestimmt. Fünf männliche Mäuse wurden in einen Glaszylinder von 3 Liter Volumen gesetzt, und in den Zylinder wurde ein aus 96 % Stickstoff und 4 % Sauerstoff bestehendes Gasgemisch eingeleitet. Gemessen wurde die Zeit zwischen dem Einbringen der Tiere in den Zylinder und ihrem Verenden. Diejenigen Tiere, die die unbehandelte Kontrolle um mehr als die doppelte Zeitspanne überlebten, können als erfolgreich behandelt gelten. Die zu untersuchenden Substanzen wurden je 10 Tieren in einer Dosis von 50 mg/kg Intraperitoneal 30 Minuten vor Versuchsbeginn verabreicht.

[5] = system: Tiere; test: Antihypoxic effect: asphyxic anoxia; assay type: in vivo; conditions: po, 1 h; p.o., one hour before test; protected = survival 30 % longer than control; read-out: ED50 Asphyxische Anoxie
Experimental: Die antihypoxische Wirkung wurde ferner hoch an asphyxischer Anoxie (Caillard C. et al.: Life Sci. 16, 1607 /1975/) und an hypobarer Hypoxie (Baumel J. et al: Proc. Soc. Biol. N.Y. 132, 629 /1969/) gemessen. Dabei wurden die Tiere 16 Stunden lang ausgehungert, dann p.o. behandelt und eine Stunde später in gut schließende Glasgefäße von 100 ml Volumen gesetzt. Als Überiebenszeit wurde die Zeit vom Verschließen des Gefäßes bis zur letzten Atembewegung registriert. Als erfolgreich behandelt können diejenigen Tiere gelten, die eine um 30 % längere Zeit an Leben blieben als der Durchschnitt der Kontrollgruppe.

[6] = system: Tiere; test: Antihypoxic effect: hypobaric hypoxia; assay type: in vivo; conditions: po, 1 h; p.o., one hour before test; 221 mbar; protected = survival 100 % longer than control; probit analysis; read-out: ED50 Hypobare Hypoxie
Text: Die Wirkung auf die hypobare Hypoxie wurde an 16 Stunden lang ausgehungerten Tieren untersucht, die eine Stunde vor Versuchsbeginn p.o. mit den Verbindungen behandelt wurden. Die Tiere wurden In einen Vakuumexsikkator gesetzt, und der Druck wurde innerhalb von 20 Sekunden auf 221 mbar [170 Torr] gesenkt. Von diesem Zeitpunkt an wurde als Überlebensdauer die Zeit bis zur letzten Atembewegung gemessen. Als erfolgreich behandelt wurden diejenigen Tiere betrachtet, deren Überlebensdauer um 100 % länger war als die durchschnittliche Übedebensdauer der Kontrolle. Aus dem prozentualen Anteil der geschützten Tiere wurden mittels Probit-Analyse die ED50-Werte berechnet.

[7] = system: Kreislauf narkotisierter Hunde; test: Vasodilating effect: blood flow in anaesthetised dogs (electromagnetic flow meter); assay type: in vivo; conditions: Canis lupus familiaris, 1 mg/kg intravenous, six dogs
Experimental: Die gefäßerweiternde Wirkung wurde an mit "Chloralose-Pentobarbital"-Gemisch narkotisierten Hunden untersucht. Die Durchblutung der Extremitäten wurde an der Arteria femoralis gemessen, über die Durchblutung des Gehirns ergaben Messungen an der Arteria carotis interna Aufschluß. Zu den Messungen wurden elektromagnetische Strömungsmesser verwendet. Die zu untersuchenden Substanzen wurden in einer Dosis von 1 mg/kg Körpergewicht sechs Hunden appliziert, und die in den gemessenen Parametern eintretenden Veränderungen wurden in Prozent umgerechnet. Als Referenzsubstanz diente der in der Medizin als gefäßerweiternde Substanz allgemein angewendete (+)-Apovincamlnsäureäthylester. Die Ergebnisse sind In der Tabelle I zusammengefaßt.

[8] = system: Mäusen; test: Anticonvulsive effect: maximal electroshock in mice; assay type: in vivo; conditions: Mus musculus, po; 20 mA, 0,2 s, corneal electrode; read-out: ED50 max. Elektroschock
Text: Der Schock wurde an 22 - 24 g schweren Tieren durch eine corneale Elektrode ausgelöst (20 mA, 0,2 s, HSE-Schockgerät Typ 207). Als geschützt wurden diejenigen Tiere betrachtet, bei denen durch die Behandlung die tonische Extension der hinteren Gliedmaßen ausblieb.

[9] = system: Mäusen; test: Anticonvulsive effect: metrazole (pentylenetetrazole) convulsion in mice; assay type: in vivo; conditions: Mus musculus, po; 125 mg/kg pentylenetetrazole subcutaneous; read-out: ED50 Metrazolkrampf
Text: Die Tiere erhielten nach der Vorbehandlung subkutan 125 mglkg Pentylentetrazol. Registriert wurde das Ausbleiben des persistierenden clonischen Krampfes und des tonischen Extensorkrampfes.

[10] = in vivo; design: species or system Mäuse; conditions: mouse, po
Text: Muskelrelaxierende Wirkung (Traction).

[11] = in vivo; conditions: for TD50: po
Experimental: Messung der Muskelinkoordination (Rotarod) (H. Kwibara et al.: Japan J. Pharmacol. 27, 117 /1977/). Nach vorherigem Training wurden Tiere ausgewählt die im Stande sind, 120 Sekunden lang auf dem horizontalen Stab (Durchmesser 20 mm, Drehzahl 12 min^-1) oben zu bleiben. Als Muskelinkoordination wurde gewertet, wenn die Tiere innerhalb der Limitzeit herabfielen.

[12] = inhibition of barium chloride-induced contraction, read-out: ED50 (the source's name)
[13] = blood flow of Arteria carotis interna (brain), read-out: A. carotis (Veränderungen in Prozent)
[14] = blood flow of Arteria femoralis (extremities), read-out: A. femoralis (Veränderungen in Prozent)

For `CCC12C=C(C(=O)OC)n3c4c(c5c([N+](=O)[O-])cccc53)CCN(CCC1)C42` (centres unmarked) [9-Nitro-apovincamin], which “antihypoxische Wirkung” value [1] is on record?
The value was “keine antihypoxische Wirkung”.

Which “gefäßerweiternde Wirkung” value [2] does the source give for `CCC12CCCN3CCc4c(n(c5cccc([N+](=O)[O-])c45)C(O)(C(=O)OC)C1)C32` (centres unmarked) [9-Nitro-vincamin] here?
Its value is “keine gefäßerweiternde Wirkung”.

For `CCOC(=O)C1=C[C@]2(CC)CCCN3CCc4c(n1c1ccccc41)[C@@H]32` [Apovincaminsäureäthylester, reference compound], which IC50 [3, 12] is on record?
The IC50 was 2 µg/mL (≈ 5.71 µM).

And the “Überlebensdauer (min)” value [4]?
Its value is 6,4 ± 1,58 min.

What about the “Überlebensdauer (%) Verlängerung” value ([4]; 50 mg/kg intraperitoneal) of the same compound?
The value was 7%.

What about the ED50 [5] of the same compound?
Its ED50 is over 50 mg/kg.

What about the ED50 [6] of the same compound?
The ED50 was over 50 mg/kg.

Which results are given for `CCOC(=O)C1=C[C@]2(CC)CCCN3CCc4c(n1c1cccc(N)c41)[C@@H]32` [Beispiel 6, 9-(Amino)-apovincaminsäureäthylesterhydrochlorid]?
Überlebensdauer (min) [4]: 7,3 ± 2,31 min; Schutz (%) ([4]; 50 mg/kg intraperitoneal, animals surviving more than twice the control time): 10%; Überlebensdauer (%) Verlängerung ([4]; 50 mg/kg intraperitoneal): 22%

For `CCOC(=O)C1=C[C@]2(CC)CCCN3CCc4c(n1c1cccc(NS(C)(=O)=O)c41)[C@@H]32` [Beispiel 7, 9-(Methylsulfonylamino)-apovincaminsäureäthylesterhydrochlorid], which change in vivo at 1 mg/kg [7, 13] is on record?
Its change in vivo at 1 mg/kg is 0%.

With `CC[C@@]12C=C(C(=O)OC)n3c4c(c5ccc(NC(=O)c6ccc([N+](=O)[O-])cc6)cc53)CCN(CCC1)[C@H]42` [Beispiel 9, 11-[4'-(Nitro)-benzoylamino]-apovincamin] as the compound, how does the ED50 [5] read?
Its ED50 is 40.9 mg/kg.

What about the ED50 [6] of the same compound?
The ED50 was 42.1 mg/kg.

With `CC[C@@]12C=C(C(=O)OC)n3c4c(c5ccc(NC(C)=O)cc53)CCN(CCC1)[C@H]42` [Beispiel 21, 11-(Acetamido)-apovincamin] as the compound, how does the change in vivo at 1 mg/kg [7, 14] read?
The change in vivo at 1 mg/kg was 0%.

For `CC[C@@]12C=C(C(=O)OC)n3c4c(c5ccc(NC(=O)c6ccccc6F)cc53)CCN(CCC1)[C@H]42` [Beispiel 26, 11-[2'-(Fluor)-benzoylamino]-apovincamin], which IC50 [3, 12] is on record?
Its IC50 is 4 µg/mL (≈ 8.45 µM).

Which IC50 [3, 12] does the source give for `CC[C@@]12C=C(C(=O)OC)n3c4c(c5ccc(NC(=O)c6ccccc6)cc53)CCN(CCC1)[C@H]42` [Beispiel 28, 11-(Benzoylamino)-apovincamin] here?
Its IC50 is 2.5 µg/mL (≈ 5.49 µM).

And the ED50 [5]?
The ED50 was 25 mg/kg.

And the ED50 [6]?
The ED50 was over 50 mg/kg.

What about the ED50 [8] of the same compound?
The ED50 was 16 mg/kg.

And the ED50 [9]?
The ED50 was 15.9 mg/kg.

With `CCOC(=O)C1=C[C@]2(CC)CCCN3CCc4c(n1c1cc(NC(=O)c5cccs5)ccc41)[C@@H]32` [Beispiel 37, 11-(Thien-2'-ylcarbonylamino)-apovincaminsäureäthylesterhydrochlorid] as the compound, how does the change in vivo at 1 mg/kg [7, 14] read?
Its change in vivo at 1 mg/kg is 0%.

With `CCOC(=O)C1=C[C@]2(CC)CCCN3CCc4c(n1c1cc(NC(=O)c5ccccc5)ccc41)[C@@H]32` [Beispiel 38, 11-(Benzoylamino)-apovincaminsäureäthylesterhydrochlorid] as the compound, how does the change in vivo at 1 mg/kg [7, 14] read?
The change in vivo at 1 mg/kg was 0%.

And the ED50 [8]?
The ED50 was 16.7 mg/kg.

And the ED50 [9]?
The ED50 was 9.7 mg/kg.

And the TD50 [10]?
Its TD50 is over 180 mg/kg.

What about the TD50 [11] of the same compound?
The TD50 was over 180 mg/kg.

Which change in vivo at 1 mg/kg [7, 14] does the source give for `CC[C@@]12C=C(C(=O)OCC(C)C)n3c4c(c5ccc(NC(C)=O)cc53)CCN(CCC1)[C@H]42` [Beispiel 39, 11-(Acetamido)-apovincaminsäureisobutylesterhydrochlorid] here?
Its change in vivo at 1 mg/kg is 0%.

Which change in vivo at 1 mg/kg [7, 13] does the source give for `CCOC(=O)C1=C[C@]2(CC)CCCN3CCc4c(n1c1cccc(NC(C)=O)c41)[C@@H]32` [Beispiel 40, 9-(Acetamido)-apovincaminsäureäthylesterhydrochlorid] here?
Its change in vivo at 1 mg/kg is 0%.

Which results are given for `CCC1(c2ccccc2)NC(=O)N(C)C1=O` (centres unmarked) [Mephenitoin, reference compound]?
ED50 [5]: > 80 mg/kg; ED50 [6]: > 80 mg/kg; ED50 [8]: 26.3 mg/kg; ED50 [9]: 24.5 mg/kg; TD50 [10]: 154 mg/kg; selectivity ratio ([11]; mouse): 3 to 6; TD50 [11]: 78.6 mg/kg

For `COc1ccc(Cc2nccc3cc(OC)c(OC)cc23)cc1OC` [Papaverin, reference compound], which IC50 ([3]; read-out: ED50) is on record?
The IC50 was 5.4 µg/mL (≈ 15.9 µM).

With `CC[C@]12CCCN3CCc4c(n(c5ccccc45)[C@@](O)(C(=O)OC)C1)[C@@H]32` [Vincamin] as the compound, how does the “Überlebensdauer (min)” value [4] read?
The value was 6,1 ± 1,30 min.

What about the “Überlebensdauer (%) Verlängerung” value ([4]; 50 mg/kg intraperitoneal) of the same compound?
Its value is 2%.
